Columns and labels:
[1] = tested on: PKAII; test: Relative affinity for PKAII (cAMP = 1), in vitro; format: binding; conditions: relative to cAMP = 1
[2] = tested on: type I holoenzyme of PKA (PKAI); test: In vitro activation of cAMP-dependent protein kinase, type I holoenzyme (kemptide substrate); format: biochemical; conditions: compared to cAMP, FIG. 5
Description: Cyclic AMP dependent protein kinase I and II were reconstituted from isolated subunits and assayed for kinase activity using […] kemptide as substrate, as described previously (15).

[3] = tested on: Rap1; test: Rap1 activation assay (read-out for Epac) in NIH3T3-A14-Epac1 cells; format: cell-based; conditions: 15 min
Description: (§1) Upper panel: NIH3T3-A14-Epac1 cells were treated for 15 min with 8-Br-cAMP, and cell lysates were analyzed for activation of Rap1 and phosphorylation of CREB. Lower panel: NIH3T3-A14-Epac1 cells were treated in duplicate for 15 min with increasing concentrations of 8-pCPT-2′-O-Me-cAMP. Cells were lysed and equal amounts of cell lysate were incubated with precoupled GST-RalGDSRBD and Rap1 was assayed by immunoblotting with Rap1 antibody.
(§2) Therefore, 8-CPT-2′-O-Me-cAMP was tested in NIH3T3-A14-Epac1 cells for the activation of Epac, using Rap1 as a read-out, and of PKA, using phosphorylation of the common PKA substrate CREB 29 as a read-out.
NIH3T3-A14 cells, stably expressing Epac1, were grown in DMEM with 10% fetal calf serum and 2 μg/ml puromycin. NIH-OVCAR3 (Ovcar3) cells were maintained in RPMI with 10% fetal calf serum. Transient transfection of Ovcar3 cells was performed using the FuGENE 6 transfection reagent (Roche Diagnostics, Mannheim, Germany) according to the manufacturer's procedures, using 6 μg total DNA including a CMV-luciferase plasmid (0.2 μg).
Rap activation assays were performed as described previously (16-18). Briefly, cells were lysed in lysis buffer containing 10% glycerol, 1% Nonidet P-40, 50 mM Tris-Cl pH7.5, 200 mM NaCl, 2mM MgCl2, 1 μM leupeptin, 0.1 μM aprotinin, 5 mM NaF, 1 mM NaVO3. Lysates were clarified by centrifugation and incubated with GST-tagged RalGDS-RBD pre-coupled to glutathione beads to specifically pull down the GTP-bound forms of Rap1. Samples were incubated for 1 hr at 4° C. while tumbling. Beads were washed four times in lysis buffer, and the remaining fluid was removed with an insulin syringe. Proteins were eluted with Laemmli sample buffer and analyzed by sodium dodecyl sulphate (SDS)-polyacrylamide gel electrophoresis and Western blotting using Rap1 antibodies. As a control, Rap1 levels in whole cell lysates were determined.

[4] = tested on: CREB; test: CREB phosphorylation (read-out for PKA) in NIH3T3-A14-Epac1 cells; format: cell-based; conditions: concentration as high as 100 μM
Description: as §1, §2
Antibodies against phosphorylated CREB (directed against phosphorylated Serl33) were obtained from Cell Signalling (Beverly, Mass., USA), and antibodies against K-Rev/Rap1 and polyclonal anti-HA were obtained from Santa Cruz Biotechnology (Santa Cruz, Calif., USA). The following inhibitors and stimuli were used at concentrations indicated, unless stated otherwise: RGD peptide (100 μM) and H-89 (10 μM) was obtained from Biomol Research Laboratories Inc. (Plymouth Meeting, Pa., USA). 8-Br-cAMP (1 mM) was obtained from BIOLOG Life Science Institute (Bremen, Germany). TPA (12-O-tetradecanoylphorbol-13-acetate) was obtained from Sigma (Steinheim, Germany) and was used at a concentration of 100 ng/ml. […]

[5] = tested on: Ovcar3 cells; test: Adhesion of Ovcar3 cells to poly-L-lysine (integrin-independent); format: cell-based; conditions: FIG. 8
Description: Upper panel: a βl integrin-blocking peptide containing the RGD sequence present in fibronectin inhibits 8-pCPT-2′-O-Me-cAMP-induced cell adhesion. Ovcar3 cells were pre-treated for 20 minutes with RGD-peptide (100 μM) where indicated, and seeded in wells with or without 8-pCPT-2′-O-Me-cAMP. Cells were allowed to adhere for 1 h. […] Ovcar3 cells were seeded onto poly-L-lysine-coated plates. At various time points, adherent cells were quantified.
24-well plates were coated overnight with 2 μg/ml fibronectin (Sigma, St. Louis, Mo., USA) in sodium bicarbonate buffer (Sigma, St. Louis, Mo., USA). […] Cells were centrifuged, counted and resuspended at 3×10^5 cells/ml in serum-free RPMI with 0.5% BSA. […] Adherent cells were lysed in luciferase lysis buffer (15% glycerol, 25 mM Tris-phosphate pH 7.8, 1% Triton X-100, 8 mM MgCl2, 1 mM DTT) at 4° C. for 30 min and units of luciferase activity were quantified with addition of equal volume of luciferase assay buffer (25 mM Tris-phosphate pH 7.8, 8 MM MgCl2, 1 mM DTT, 1 mM ATP pH 7, 1 mM luciferin) using a luminometer (Lumat LB9507; Berthold Technologies, Belgium). […] Specific adhesion (%) was determined (counts in cells bound/counts in total input×100) and plotted either directly or relative to the basal adhesion of HA vector-transfected cells. […]

CO[C@@H]1[C@@H]2OP(=O)(O)OC[C@H]2O[C@H]1n1c(Sc2ccc(Cl)cc2)nc2c(N)ncnc21 [Compound I-007, 8-(4-chloro-phenylthio)-2′-O-methyladenosine-3′,5′-cyclic monophosphate]
Relative affinity CAMP = 1 PKAII [1]: 0.003
ability to activate the type I holoenzyme of PKA [2]: greatly impaired
activation of Rap1 ([3]; 8-Br-cAMP 1 mM): induced the activation of Rap1 only
concentration at which Rap1 is already activated ([3]; dose-response): 10 µM
CREB phosphorylation [4]: did not induce CREB phosphorylation
integrin-independent adhesion to poly-L-lysine [5]: did not increase

Source: US7906491B2 (Univisitair Medisch Centrum Utrecht, priority 2002, dated 2011)
